Results: patent publication US12252524B2, “GIP/GLP1 co-agonist compounds” (Eli Lilly and Company, priority 2018, dated 2025)
Numbered stars: 1 amine (or outer) side, 2 acyl side, 3 side chain; on linkers, the order of the positions; unused ones are H or OH. Square brackets hold non-standard residues; d marks the D form. Side chains are listed from the residue outwards. Peptide text beside a SMILES is read from it. * marks the point of attachment. C20 diacid = O=C(O)CCCCCCCCCCCCCCCCCCC(=O)*; γGlu = O=C(O)[C@H](CCC(=O)[*:2])N[*:1]; AEEA = NCCOCCOCC(=O)O; Aib = CC(C)(N)C(=O)O

Tests used:
human GIP receptor = target: T1, human GIP receptor (Homo sapiens, UniProt P48546); experiment: [125I]-GIP binding (SPA), human GIP receptor; conditions: read-out: hGIPR Ki, nM (SEM, n)
T1 construct: expressed in transfected cells; crude membranes
T1 sequence (P48546 22-466): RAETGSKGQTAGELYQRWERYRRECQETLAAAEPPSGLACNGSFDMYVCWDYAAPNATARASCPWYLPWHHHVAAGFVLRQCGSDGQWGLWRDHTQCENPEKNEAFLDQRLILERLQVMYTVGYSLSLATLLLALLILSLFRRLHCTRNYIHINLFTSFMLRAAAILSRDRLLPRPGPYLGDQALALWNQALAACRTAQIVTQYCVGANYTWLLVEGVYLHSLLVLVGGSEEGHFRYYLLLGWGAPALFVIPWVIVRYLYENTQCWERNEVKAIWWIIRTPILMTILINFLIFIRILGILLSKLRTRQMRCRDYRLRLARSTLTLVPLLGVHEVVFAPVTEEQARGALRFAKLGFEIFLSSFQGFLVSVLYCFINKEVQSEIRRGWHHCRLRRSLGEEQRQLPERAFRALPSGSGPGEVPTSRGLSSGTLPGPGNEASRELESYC

human Gcg receptor = target: T2, human Gcg receptor (Homo sapiens, UniProt P47871); experiment: [125I]-Glucagon binding (SPA), human Gcg receptor; conditions: read-out: hGLcgR Ki, nM (SEM, n)
T2 construct: expressed in transfected cells; crude membranes
T2 sequence (P47871 26-477): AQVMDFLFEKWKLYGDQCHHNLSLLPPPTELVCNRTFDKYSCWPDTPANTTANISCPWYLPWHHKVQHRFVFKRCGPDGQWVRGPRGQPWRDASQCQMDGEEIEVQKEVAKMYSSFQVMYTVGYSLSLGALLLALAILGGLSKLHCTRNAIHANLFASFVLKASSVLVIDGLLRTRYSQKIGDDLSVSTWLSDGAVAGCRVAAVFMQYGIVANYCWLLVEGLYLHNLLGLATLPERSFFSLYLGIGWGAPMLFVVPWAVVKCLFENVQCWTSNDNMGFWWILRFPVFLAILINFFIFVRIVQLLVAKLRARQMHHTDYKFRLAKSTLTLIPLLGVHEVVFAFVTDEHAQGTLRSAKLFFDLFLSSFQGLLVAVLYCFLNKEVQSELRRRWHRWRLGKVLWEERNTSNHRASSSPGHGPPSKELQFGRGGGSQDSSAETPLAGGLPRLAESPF
How it was run: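 Crude membranes from cells expressing the receptor, prepared by hypotonic lysis in 50 mM Tris HCl pH 7.5 with protease inhibitors, homogenization and differential centrifugation, were used in a WGA-bead SPA. Binding buffer: 25 mM HEPES pH 7.4, 2.5 mM CaCl2, 1 mM MgCl2, bacitracin, Tween-20.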

human GLP-1R = human GLP-1R (Homo sapiens, UniProt P43220); experiment: [125I]-GLP-1 binding (SPA), human GLP-1 receptor; parameters: expressed in transfected cells; crude membranes; conditions: read-out: hGLP1R Ki, (nM) (SEM, n)
Sequence of human GLP-1R (P43220 24-463): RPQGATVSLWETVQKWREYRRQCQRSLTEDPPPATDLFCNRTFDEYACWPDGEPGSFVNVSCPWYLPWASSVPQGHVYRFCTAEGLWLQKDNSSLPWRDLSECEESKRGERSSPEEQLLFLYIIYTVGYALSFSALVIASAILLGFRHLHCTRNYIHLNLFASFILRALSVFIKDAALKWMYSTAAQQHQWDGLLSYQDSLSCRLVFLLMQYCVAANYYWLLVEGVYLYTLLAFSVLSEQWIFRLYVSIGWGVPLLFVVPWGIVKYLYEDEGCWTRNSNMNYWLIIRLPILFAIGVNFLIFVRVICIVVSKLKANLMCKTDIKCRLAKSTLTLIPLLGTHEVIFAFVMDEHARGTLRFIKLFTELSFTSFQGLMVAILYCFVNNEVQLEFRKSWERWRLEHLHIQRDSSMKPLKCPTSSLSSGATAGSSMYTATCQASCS
How it was run: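 Frozen cell pellets are lysed on ice in hypotonic Tris buffer, pH 7.5, homogenized, and centrifuged to a membrane pellet resuspended at about 1 to 3 mg/mL. Binding is then measured in HEPES-based buffer at pH 7.4, and curves are fitted to give IC50 and Ki.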

[1] = target: T3, gastric inhibitory peptide receptor (GIPR) (Homo sapiens, UniProt P48546); experiment: cAMP pharmacological functional assay in presence of casein, hGIPR; type: cell-based; conditions: HEK293 cells expressing hGIPR, 0.1% Casein, geometric mean; read-out: hGIPR cAMP Rel EC50 nM (SEM, n)
T3 sequence (P48546 22-466): T1 sequence (P48546 22-466)

[2] = target: human GLP-1 receptor (GLP-1R) (Homo sapiens, UniProt P43220); experiment: cAMP pharmacological functional assay in presence of casein, hGLP-1R; type: cell-based; conditions: HEK293 cells expressing hGLP-1R, 0.1% Casein, geometric mean; read-out: hGLP1R cAMP Rel EC50 nM (SEM, n)
Sequence of human GLP-1 receptor (GLP-1R) (P43220 24-463): as above

For `CC[C@H](C)[C@H](NC(=O)[C@H](CCCCN)NC(=O)[C@H](CC(=O)O)NC(=O)[C@H](CC(C)C)NC(=O)[C@H](CC(C)C)NC(=O)[C@@H](NC(=O)[C@H](CO)NC(=O)[C@H](Cc1ccc(O)cc1)NC(=O)[C@H](CC(=O)O)NC(=O)[C@H](CO)NC(=O)[C@@H](NC(=O)[C@H](Cc1ccccc1)NC(=O)[C@@H](NC(=O)CNC(=O)[C@H](CCC(=O)O)NC(=O)C(C)(C)NC(=O)[C@@H](N)Cc1ccc(O)cc1)[C@@H](C)O)[C@@H](C)O)[C@@H](C)CC)C(=O)N[C@@H](C)C(=O)N[C@@H](CCC(N)=O)C(=O)N[C@@H](CCCCNC(=O)COCCOCCNC(=O)COCCOCCNC(=O)CC[C@H](NC(=O)CCCCCCCCCCCCCCCCCCC(=O)O)C(=O)O)C(=O)N[C@@H](CCC(=O)O)C(=O)N[C@@H](Cc1ccccc1)C(=O)N[C@H](C(=O)N[C@@H](CCC(N)=O)C(=O)N[C@@H](Cc1ccc(O)cc1)C(=O)N[C@@H](CC(C)C)C(=O)N[C@@H](CC(C)C)C(=O)N[C@@H](CCC(=O)O)C(=O)NC(C)(C)C(=O)NCC(=O)N1CCC[C@H]1C(=O)N[C@@H](CO)C(=O)N[C@@H](CO)C(=O)NCC(=O)N[C@@H](C)C(=O)N1CCC[C@H]1C(=O)N1CCC[C@H]1C(=O)N1CCC[C@H]1C(=O)N[C@@H](CO)C(N)=O)[C@@H](C)CC` [Example 14] (H-Y[Aib]EGTFTSDYSILLDKIAQK([AEEA-AEEA-γGlu-C20 diacid])EFIQYLLE[Aib]GPSSGAPPPS-NH2; N-terminus assumed), the Ki (human GIP receptor) was 0.0494 nM, the Ki (human Gcg receptor) was 160 nM and the Ki (human GLP-1R) was 29.6 nM. The EC50 [1] was 0.284 nM and the EC50 [2] was 1.87 nM.
`CC[C@H](C)[C@H](NC(=O)[C@H](Cc1ccccc1)NC(=O)[C@H](C)NC(=O)C(C)(C)NC(=O)[C@H](CCC(N)=O)NC(=O)[C@H](C)NC(=O)[C@H](CCCCNC(=O)COCCOCCNC(=O)COCCOCCNC(=O)CC[C@H](NC(=O)CCCCCCCCCCCCCCCCCCC(=O)O)C(=O)O)NC(=O)[C@H](CCCCN)NC(=O)[C@H](CC(=O)O)NC(=O)[C@H](CC(C)C)NC(=O)[C@H](CC(C)C)NC(=O)[C@@H](NC(=O)[C@H](CO)NC(=O)[C@H](Cc1ccc(O)cc1)NC(=O)[C@H](CC(=O)O)NC(=O)[C@H](CO)NC(=O)[C@@H](NC(=O)[C@H](Cc1ccccc1)NC(=O)[C@@H](NC(=O)CNC(=O)[C@H](CCC(=O)O)NC(=O)C(C)(C)NC(=O)[C@@H](N)Cc1c[nH]cn1)[C@@H](C)O)[C@@H](C)O)[C@@H](C)CC)C(=O)N[C@@H](CCC(=O)O)C(=O)N[C@@H](Cc1ccc(O)cc1)C(=O)N[C@@H](CC(C)C)C(=O)N[C@@H](CC(C)C)C(=O)N[C@@H](CCC(=O)O)C(=O)NC(C)(C)C(=O)NCC(=O)N1CCC[C@H]1C(=O)N[C@@H](CO)C(=O)N[C@@H](CO)C(=O)NCC(=O)N[C@@H](C)C(=O)N1CCC[C@H]1C(=O)N1CCC[C@H]1C(=O)N1CCC[C@H]1C(=O)N[C@@H](CO)C(N)=O` [Example 15] (H-H[Aib]EGTFTSDYSILLDKK([AEEA-AEEA-γGlu-C20 diacid])AQ[Aib]AFIEYLLE[Aib]GPSSGAPPPS-NH2) showed a Ki (human GIP receptor) of 0.284 nM, a Ki (human Gcg receptor) of 130 nM and a Ki (human GLP-1R) of 2.19 nM. The EC50 [1] was 0.613 nM and the EC50 [2] was 0.0336 nM.
